Where “and” joins values, the source holds several entries; their conditions need not be identical. Equal entries are not always repeated. Where two headings read alike, the source gives them in different places.
How the values were obtained:
Sitophilus zeamais [1] = format: in vivo
Procedure: (§1) The insects used in this study were Sitophilus zeamais Motschulsky (Coleoptera: Curculionidae), identified by the Instituto Colombiano Agropecuario (ICA) under report number R3823M0000425. […] The adult insects used in all the experiments were 6 to 10 days post-emergence.
Groups of 10 insects, previously placed in Petri dishes, were immobilized by exposure to low temperatures (0 °C). An initial dose of 50.0 µg per adult was applied topically to the dorsal thorax of each insect using aliquots of 0.20 µL from 0.25 mg/µL solutions in n-hexane. […] All treatments were performed in two independent experiments, each with four replicates. Insect mortality was assessed after 24 h, and mortality percentages were calculated using Abbott’s correction formula (Equation (1)).
(§2) Mixtures predicted by the RSM were prepared based on mole fractions. […] Four replicates were performed for each treatment and control across two independent experimental runs.
(§3) Dose reduction indices (DRIs) were also calculated to estimate how much the dose of each compound in a synergistic combination could be reduced to achieve a 50% effect (Equation (4)). DRIs were interpreted as favorable when >1, neutral at 1, and unfavorable when <1.

Sitophilus zeamais [2] = assay: whole plant or invertebrate; details: Sitophilus zeamais; for EC90: read-out: Fumigant Toxicity LC90 (95% FL)
Procedure: as §1
The treated disks were affixed to the inner surface of the screw cap of 22 mL glass vials. […] All treatments were performed in two independent experiments, each with five replicates.
as §2
as §3, with “<1. Values above the log DRI = 0 line indicate favorable dose reductions.(4) (IRD)i=CL50i(fax)i/(1−(fax)i)^1/mi/(D)i” for “<1.”

[3] = tested on: glutathione S-transferase (GST) activity in S. zeamais; assay: GST activity assay (modified Habig) with S. zeamais protein extract; format: biochemical, Sitophilus zeamais; details: 120 mg/L
Procedure: Enzymatic assays were performed in the assay buffer, consisting of 0.1 M potassium phosphate buffer (pH 7.2). The compounds and mixtures evaluated in the in vitro assays were prepared in the same buffer supplemented with 0.5% (v/v) Triton X-100 (Sigma-Aldrich®, Saint Louis, MO, USA).
A modified version of the method described by Oviedo et al. was used. Adults of S. zeamais (8 g; ~3125 insects) were frozen in liquid nitrogen, homogenized in a 1:10 ratio with assay buffer, and centrifuged at 13,000× g for 60 min at 4 °C. The supernatant was filtered, and 20 mM benzamidine was added. The extracts were stored in 5 mL aliquots at −20 °C. Preliminary assays were performed to quantify the specific activity of AChE (0.02–1.00 U/mL), GST (0.1–0.8 U/mL), and CAT (0.1–25 U/mL), and to optimize assay conditions (enzyme dilution: 1/8 to 1% v/v; substrate concentrations: 2 × km or within assay linearity). Each experiment was performed independently three times, with three technical replicates per experiment.
A modified version of Habig’s method was used. The protein extract (50 µL; 0.59 U/mL) was incubated with 50 µL of the compound or mixture (120 mg/L), followed by 50 µL each of CDNB and reduced glutathione (GSH). Kinetic absorbance was measured at 340 nm for 8 min. Blanks (without substrate) and quercetin (positive control) were included. Inhibition (%) was calculated using Equation (5), and treatment differences were evaluated via parametric ANOVA (α = 0.05) in GraphPad Prism 8.0.2 [42, 43]. Each experiment was performed independently three times, with three technical replicates per experiment.(5) % Inhibition=1−Am−AB/AC ×100 where Am is the absorbance of the sample, AB is the absorbance of the blank, and AC is the absorbance of the negative control.

AChE of S. zeamais = assay: AChE activity assay (modified Ellman) with S. zeamais protein extract; format: biochemical, Sitophilus zeamais; parameters: key to AChE Effect Inhibitor Type: C: competitive inhibitor; NC: non-competitive inhibitor; details: for AChE Effect Inhibitor Type: Lineweaver–Burk; for AChE Effect IC50 ± SD / Ki: S. zeamais protein extract; for Ki: read-out: AChE Effect ki ± SD (inhibitory constant)
Procedure: The compounds and mixtures evaluated in the in vitro assays were prepared in the same buffer supplemented with 0.5% (v/v) Triton X-100 (Sigma-Aldrich®, Saint Louis, MO, USA).
The supernatant was filtered, and 20 mM benzamidine was added. The extracts were stored in 5 mL aliquots at −20 °C. Preliminary assays were performed to quantify the specific activity of AChE (0.02–1.00 U/mL), GST (0.1–0.8 U/mL), and CAT (0.1–25 U/mL), and to optimize assay conditions (enzyme dilution: 1/8 to 1% v/v; substrate concentrations: 2 × km or within assay linearity).
Then, 50 µL of DTNB and 50 µL of ATChI were added. […] Inhibition percentages were calculated using Equation (5).

[4] = in Homo sapiens, 24 h, read-out: Fumigant Toxicity LC50 (95% FL)
[5] = 24 h, read-out: Fumigant Toxicity LC50i (LC-95%)

Row | SMILES | Contact Toxicity LD50 (95% FL) (Sitophilus zeamais [1]; topical, 24 h after exposure) | Contact Toxicity LD90 (95% FL) (Sitophilus zeamais [1]; topical, 24 h after exposure) | LC50 (Sitophilus zeamais [2]; [4]) | EC90 (Sitophilus zeamais [2]; in Homo sapiens, 24 h) | GST Inhibition λ340 (%) [3] | LC50 (Sitophilus zeamais [2]; [5]) | further results
1 | CCCCCCCC(C)=O [Compound C9, 2-Nonanone] | 31.86 (30.27–33.17) µg/Adult | 39.69 (38.01–42.15) µg/Adult | 9.09 µg/mL and 63.9 µM | 13.7 µg/mL and 96.5 µM | – | – | –
2 | C=CCc1ccc2c(c1)OCO2 [Compound C32, Safrole] | 36.31 (30.15–42.37) µg/Adult | 83.04 (73.50–96.63) µg/Adult | – | – | – | – | Contact toxicity, times less active than biosynthetic precursors C26 and C31 (Sitophilus zeamais [1]; in vivo): 1.5 times
3 | CC(C)=CCC/C(C)=C/C=O [Compound C27, Citral] | – | 32.68 (29.77–36.82) µg/Adult | – | – | – | – | –
4 | CC1(C)C(=O)[C@]2(C)CC[C@H]1C2 [Compound C8, 1R-(−)-Fenchone] | 34.65 (32.19–37.08) µg/Adult | 48.33 (45.12–52.78) µg/Adult | 10.6 µg/mL and 69.6 µM | 17.1 µg/mL and 112 µM | – | – | –
5 | C=C1CCC2(C(C)C)CC12 (centres unmarked) [Compound C18, Sabinene] | – | – | 68.7 µg/mL and 504 µM | 102 µg/mL and 750 µM | 25.9% | 68.7 µg/mL | LC50 (Sitophilus zeamais [2]; read-out: LC50 values, fumigant activity (Figure 3)): 68.6 µg/mL
6 | CC1=CCC(C(C)C)=CC1 [Compound C21, γ-Terpinene] | – | – | 108 µg/mL and 792 µM | 188 µg/mL and 1.38 mM | 25.9% | 108 µg/mL | –
7 | CC1=CCC(=C(C)C)CC1 [Compound C24, Terpinolene] | – | – | 52.1 µg/mL and 338 µM | 88.8 µg/mL and 576 µM | – | – | –
8 | CC(C)=CCC/C(C)=C/CO [Compound C30, Geraniol] | 28.13 (25.70–30.49) µg/Adult | 41.06 (37.98–45.41) µg/Adult | – | – | – | – | –
9 | C=C(C)[C@@H]1CC[C@@H](C)C[C@H]1O [Compound C7, 1R,2S,5R-Isopulegol] | – | 26.65 (25.07–28.90) µg/Adult | 4.73 µg/mL and 30.7 µM | 7.19 µg/mL and 46.6 µM | 10.6% | 4.73 µg/mL | AChE inhibition type (Lineweaver–Burk plots), in words (AChE of S. zeamais): competitive inhibition; AChE Effect Inhibitor Type (AChE of S. zeamais): C; AChE Effect IC50 ± SD (AChE of S. zeamais): 18.15 ± 0.64 µg/mL; Ki (AChE of S. zeamais): 282 ± 4.14 µM
10 | CC1=CC[C@H]2[C@@H](C1)C2(C)C [Compound C15, δ-3-Carene] | – | – | 80.3 µg/mL and 590 µM | 136 µg/mL and 997 µM | 7.3% | 80.3 µg/mL | AChE inhibition type (Lineweaver–Burk plots), in words (AChE of S. zeamais): non-competitive inhibition; AChE Effect Inhibitor Type (AChE of S. zeamais): NC; Ki (AChE of S. zeamais): 2.85 ± 0.05 µM
11 | C=CCc1ccc(OC)cc1 [Compound C11, Estragole] | – | – | 30.5 µg/mL and 206 µM | 57.5 µg/mL and 388 µM | ~ 17.5% and 17.6% | 30.5 µg/mL | Contact Toxicity LD90 (95% FL) (Sitophilus zeamais [1]; in vivo): 79.66 (68.62–99.73) µg/Adult; AChE inhibition type (Lineweaver–Burk plots), in words (AChE of S. zeamais): competitive inhibition; AChE Effect Inhibitor Type (AChE of S. zeamais): C; AChE Effect IC50 ± SD (AChE of S. zeamais): 27.41 ± 1.64 µg/mL; Ki (AChE of S. zeamais): 159 ± 6.34 µM
12 | C=C1CCC2CC1C2(C)C (stereo not drawn) [Compound C17, β-Pinene] | – | – | – | 151 µg/mL | – | – | –
13 | CC(=O)OC/C=C(\C)CCC=C(C)C [Compound C37, Geranyl acetate] | 73.00 (65.98–81.05) µg/Adult | 126.06 (112.84–146.08) µg/Adult | – | – | – | – | –

Reference: PMC12194779, “Synergistic Insecticidal Activity of Plant Volatile Compounds: Impact on Neurotransmission and Detoxification Enzymes in Sitophilus zeamais” (Insects, 2025)
